Measurements reported in patent publication US20120053165A1, “Novel Phenyl Imidazoles and Phenyl Triazoles As Gamma-Secretase Modulators” (Pfizer Inc., priority 2009, published 2012).

Tested on: production of amyloid beta protein Aβ(1-42) in human WT-APP overexpressing CHO cells
Conditions: Homo sapiens, CHO, read-out: Aβ 42 IC50
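Note: Aβ(1-42) released into conditioned medium captured by ELISA after roughly 24 h compound exposure, vehicle and inhibitor controls defining maximal and minimal inhibition.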

**Q.** Which IC50 does the source give for COc1cc(C(=O)NCCc2c(C)[nH]c3ccc(C)cc23)ccc1-n1cnc(C)c1 [Example 73, N-[2-(2,5-dimethyl-1H-indol-3-yl)ethyl]-3-methoxy-4-(4-methyl-1H-imidazol-1-yl)benzamide] here?
**A.** The IC50 was 444 nM.

**Q.** Which IC50 does the source give for COc1cc(C(=O)NCCc2ccccc2Cl)ccc1-n1cnc(C)c1 [Example 79, N-[2-(2-chlorophenyl)ethyl]-3-methoxy-4-(4-methyl-1H-imidazol-1-yl)benzamide] here?
**A.** Its IC50 is 495 nM.

**Q.** How did the IC50 turn out when COc1cc(C(=O)NCCc2ccc(Cl)cc2)ccc1-n1cnc(C)c1 [Example 103, N-[2-(4-chlorophenyl)ethyl]-3-methoxy-4-(4-methyl-1H-imidazol-1-yl)benzamide] was run?
**A.** Its IC50 is 698 nM.

**Q.** With CCOc1ccccc1CCNC(=O)c1ccc(-n2cnc(C)c2)c(OC)c1 [Example 104, N-[2-(2-ethoxyphenyl)ethyl]-3-methoxy-4-(4-methyl-1H-imidazol-1-yl)benzamide] as the compound, how does the IC50 read?
**A.** The IC50 was 698 nM.

Same assay, conditions: Homo sapiens, CHO, read-out: Aβ 42 IC50, Geometric mean of 2-8 determinations; human WT-APP overexpressing CHO cells

**Q.** COc1cc(C(=O)NCC(C)Oc2ccccc2Cl)ccc1-n1cnc(C)c1 (stereo not drawn) [Example 74, N-[2-(2-chlorophenoxy)propyl]-3-methoxy-4-(4-methyl-1H-imidazol-1-yl)benzamide] was tested. Which IC50 did it give?
**A.** The IC50 was 466 nM.

**Q.** COc1cc(C(=O)NCc2ccc(F)cc2Cl)ccc1-n1cnc(C)c1 [Example 76, N-(2-chloro-4-fluorobenzyl)-3-methoxy-4-(4-methyl-1H-imidazol-1-yl)benzamide] was tested. Which IC50 did it give?
**A.** The IC50 was 476 nM.

**Q.** With COc1cc(C(=O)NCCCc2ccc(F)cc2)ccc1-n1cnc(C)c1 [Example 81, N-[3-(4-fluorophenyl)propyl]-3-methoxy-4-(4-methyl-1H-imidazol-1-yl)benzamide] as the compound, how does the IC50 read?
**A.** The IC50 was 504 nM.

**Q.** How did the IC50 turn out when COc1cc(C(=O)N2CCCC(Oc3ccccc3C(C)C)C2)ccc1-n1cnc(C)c1 (stereo not drawn) [Example 85, 3-(2-isopropylphenoxy)-1-[3-methoxy-4-(4-methyl-1H-imidazol-1-yl)benzoyl]piperidine] was run?
**A.** Its IC50 is 533 nM.

**Q.** For COc1cc(C(=O)NCc2nc3cc(Cl)c(C)cc3o2)ccc1-n1cnc(C)c1 [Example 86, N-[(5-chloro-6-methyl-1,3-benzoxazol-2-yl)methyl]-3-methoxy-4-(4-methyl-1H-imidazol-1-yl)benzamide], which IC50 is on record?
**A.** Its IC50 is 544 nM.

**Q.** How did the IC50 turn out when COc1cc(C(=O)NCc2cc3cc(F)ccc3[nH]2)ccc1-n1cnc(C)c1 [Example 89, N-[(5-fluoro-1H-indol-2-yl)methyl]-3-methoxy-4-(4-methyl-1H-imidazol-1-yl)benzamide] was run?
**A.** Its IC50 is 570 nM.

**Q.** Which IC50 does the source give for COc1cc(C(=O)N2CCC(Oc3ccccc3C(F)(F)F)CC2)ccc1-n1cnc(C)c1 [Example 91, 1-[3-methoxy-4-(4-methyl-1H-imidazol-1-yl)benzoyl]-4-[2-(trifluoromethyl)phenoxy]piperidine] here?
**A.** The IC50 was 588 nM.

**Q.** With COc1cc(C(=O)N2CCC(Oc3ccccc3OC(F)(F)F)CC2)ccc1-n1cnc(C)c1 [Example 93, 1-[3-methoxy-4-(4-methyl-1H-imidazol-1-yl)benzoyl]-4-[2-(trifluoromethoxy)phenoxy]piperidine] as the compound, how does the IC50 read?
**A.** The IC50 was 602 nM.

**Q.** Which IC50 does the source give for COc1cc(C(=O)N2CCC(c3cccc(Cl)c3)C2)ccc1-n1cnc(C)c1 (stereo not drawn) [Example 98, 1-(4-{[3-(3-chlorophenyl)pyrrolidin-1-yl]carbonyl}-2-methoxyphenyl)-4-methyl-1H-imidazole] here?
**A.** Its IC50 is 642 nM.

**Q.** COc1cc(C(=O)NCC2(c3ccccc3)CC2)ccc1-n1cnc(C)c1 [Example 101, 3-methoxy-4-(4-methyl-1H-imidazol-1-yl)-N-[(1-phenylcyclopropyl)methyl]benzamide] was tested. Which IC50 did it give?
**A.** The IC50 was 686 nM.

Same assay, conditions: Homo sapiens, CHO, read-out: Aβ 42 IC50, Single IC50 determination; human WT-APP overexpressing CHO cells

**Q.** With COc1cc(C(=O)N2CC[C@@H](Oc3ccccc3C(F)(F)F)C2)ccc1-n1cnc(C)c1 [Example 69, 1-[2-methoxy-4-({(3R)-3-[2-(trifluoromethyl)phenoxy]pyrrolidin-1-yl}carbonyl)phenyl]-4-methyl-1H-imidazole] as the compound, how does the IC50 read?
**A.** The IC50 was 421 nM.

Same assay, conditions: read-out: Aβ 42 IC50; Geometric mean of 2-8 determinations; human WT-APP overexpressing CHO cells

**Q.** COc1cc(C(=O)NCc2ccc(F)c(C(F)(F)F)c2)ccc1-n1cnc(C)c1 [Example 66, N-[4-fluoro-3-(trifluoromethyl)benzyl]-3-methoxy-4-(4-methyl-1H-imidazol-1-yl) benzamide] was tested. Which IC50 did it give?
**A.** Its IC50 is 410 nM.

**Q.** With COc1cc(C(=O)NCc2ccc(Cl)c(Cl)c2)ccc1-n1cnc(C)c1 [Example 67, N-(3,4-dichlorobenzyl)-3-methoxy-4-(4-methyl-1H-imidazol-1-yl) benzamide] as the compound, how does the IC50 read?
**A.** Its IC50 is 410 nM.

**Q.** COc1cc(C(=O)NCCc2nc3cccc(Cl)c3o2)ccc1-n1cnc(C)c1 [Example 68, N-[2-(7-chloro-1,3-benzoxazol-2-yl)ethyl]-3-methoxy-4-(4-methyl-1H-imidazol-1-yl) benzamide] was tested. Which IC50 did it give?
**A.** Its IC50 is 418 nM.

**Q.** How did the IC50 turn out when COc1cc(C(=O)NCc2sc3ccccc3c2Cl)ccc1-n1cnc(C)c1 [Example 70, N-[(3-chloro-1-benzothien-2-yl)methyl]-3-methoxy-4-(4-methyl-1H-imidazol-1-yl) benzamide] was run?
**A.** The IC50 was 425 nM.

**Q.** How did the IC50 turn out when COc1cc(C(=O)NCCc2cc(C)ccc2C)ccc1-n1cnc(C)c1 [Example 71, N-[2-(2,5-dimethylphenyl)ethyl]-3-methoxy-4-(4-methyl-1H-imidazol-1-yl) benzamide] was run?
**A.** The IC50 was 429 nM.

**Q.** For COc1cc(C(=O)N[C@@H]2CCC[C@@H]2Cc2ccccc2)ccc1-n1cnc(C)c1 [Example 72, N-[(1R,2R)-2-benzylcyclopentyl]-3-methoxy-4-(4-methyl-1H-imidazol-1-yl) benzamide], which IC50 is on record?
**A.** The IC50 was 442 nM.

**Q.** With COc1cc(C(=O)NCc2ccccc2OC(F)(F)F)ccc1-n1cnc(C)c1 [Example 75, 3-methoxy-4-(4-methyl-1H-imidazol-1-yl)-N-[2-(trifluoromethoxy)benzyl] benzamide] as the compound, how does the IC50 read?
**A.** Its IC50 is 469 nM.

**Q.** Which IC50 does the source give for COc1cc(C(=O)NCc2cccc(C(F)(F)F)c2F)ccc1-n1cnc(C)c1 [Example 77, N-[2-fluoro-3-(trifluoromethyl)benzyl]-3-methoxy-4-(4-methyl-1H-imidazol-1-yl) benzamide] here?
**A.** Its IC50 is 481 nM.

**Q.** For COc1cc(C(=O)NC2(c3ccc(Cl)cc3)CC2)ccc1-n1cnc(C)c1 [Example 78, N-[1-(4-chlorophenyl)cyclopropyl]-3-methoxy-4-(4-methyl-1H-imidazol-1-yl) benzamide], which IC50 is on record?
**A.** The IC50 was 488 nM.

**Q.** Which IC50 does the source give for COc1cc(C(=O)N[C@H](c2ccccc2)[C@@H](O)c2ccccc2)ccc1-n1cnc(C)c1 [Example 80, N-[(1R,2S)-2-hydroxy-1,2-diphenylethyl]-3-methoxy-4-(4-methyl-1H-imidazol-1-yl) benzamide] here?
**A.** The IC50 was 501 nM.

**Q.** Which IC50 does the source give for COc1cc(C(=O)NCc2cc(C)ccc2C)ccc1-n1cnc(C)c1 [Example 82, N-(2,5-dimethylbenzyl)-3-methoxy-4-(4-methyl-1H-imidazol-1-yl) benzamide] here?
**A.** The IC50 was 513 nM.

**Q.** For COc1cc(C(=O)NCc2ccc(C(F)(F)F)c(F)c2)ccc1-n1cnc(C)c1 [Example 83, N-[3-fluoro-4-(trifluoromethyl)benzyl]-3-methoxy-4-(4-methyl-1H-imidazol-1-yl) benzamide], which IC50 is on record?
**A.** The IC50 was 514 nM.

**Q.** With COc1cc(C(=O)NCc2cccc(Cl)c2)ccc1-n1cnc(C)c1 [Example 84, N-(3-chlorobenzyl)-3-methoxy-4-(4-methyl-1H-imidazol-1-yl) benzamide] as the compound, how does the IC50 read?
**A.** The IC50 was 520 nM.

**Q.** COc1cc(C(=O)NCc2cc3ccccc3s2)ccc1-n1cnc(C)c1 [Example 87, N-(1-benzothien-2-ylmethyl)-3-methoxy-4-(4-methyl-1H-imidazol-1-yl) benzamide] was tested. Which IC50 did it give?
**A.** Its IC50 is 560 nM.

**Q.** COc1cc(C(=O)NC(C)Cc2ccc(C(F)(F)F)cc2)ccc1-n1cnc(C)c1 (stereo not drawn) [Example 88, 3-methoxy-4-(4-methyl-1H-imidazol-1-yl)-N-{1-methyl-2-[4-(trifluoromethyl)phenyl]ethyl} benzamide] was tested. Which IC50 did it give?
**A.** The IC50 was 561 nM.

**Q.** For COc1cc(C(=O)NCCOc2ccccc2Cl)ccc1-n1cnc(C)c1 [Example 90, N-[2-(2-chlorophenoxy)ethyl]-3-methoxy-4-(4-methyl-1H-imidazol-1-yl) benzamide], which IC50 is on record?
**A.** The IC50 was 573 nM.

**Q.** How did the IC50 turn out when COc1cc(C(=O)NC2(Cc3cccc(Cl)c3)CC2)ccc1-n1cnc(C)c1 [Example 92, N-[1-(3-chlorobenzyl)cyclopropyl]-3-methoxy-4-(4-methyl-1H-imidazol-1-yl) benzamide] was run?
**A.** The IC50 was 595 nM.

**Q.** How did the IC50 turn out when COc1cc(C(=O)NCc2nc(-c3ccc(C(F)(F)F)c(F)c3)no2)ccc1-n1cnc(C)c1 [Example 94, N-({3-[3-fluoro-4-(trifluoromethyl)phenyl]-1,2,4-oxadiazol-5-yl}methyl)-3-methoxy-4-(4-methyl-1H-imidazol-1-yl) benzamide] was run?
**A.** Its IC50 is 610 nM.

**Q.** COc1cc(C(=O)N[C@@H]2CCC[C@@H]2Cc2cccc(F)c2)ccc1-n1cnc(C)c1 [Example 95, N-[(1R,2R)-2-(3-fluorobenzyl)cyclopentyl]-3-methoxy-4-(4-methyl-1H-imidazol-1-yl) benzamide] was tested. Which IC50 did it give?
**A.** The IC50 was 627 nM.

**Q.** How did the IC50 turn out when COc1cc(C(=O)NC(c2ccccc2Cl)c2nc3ccccc3n2C)ccc1-n1cnc(C)c1 (stereo not drawn) [Example 96, N-[(2-chlorophenyl)(1-methyl-1H-benzimidazol-2-yl)methyl]-3-methoxy-4-(4-methyl-1H-imidazol-1-yl) benzamide] was run?
**A.** The IC50 was 630 nM.

**Q.** Which IC50 does the source give for COc1cc(C(=O)NCCc2c[nH]c3ccc(C)cc23)ccc1-n1cnc(C)c1 [Example 97, 3-methoxy-4-(4-methyl-1H-imidazol-1-yl)-N-[2-(5-methyl-1H-indol-3-yl)ethyl] benzamide] here?
**A.** The IC50 was 634 nM.

**Q.** For COc1cc(C(=O)NC(C)c2ccc3[nH]ccc3c2)ccc1-n1cnc(C)c1 (stereo not drawn) [Example 99, N-[1-(1H-indol-5-yl)ethyl]-3-methoxy-4-(4-methyl-1H-imidazol-1-yl) benzamide], which IC50 is on record?
**A.** The IC50 was 665 nM.

**Q.** With COc1cc(C(=O)NC(C)CCc2ccccc2)ccc1-n1cnc(C)c1 (stereo not drawn) [Example 100, 3-methoxy-4-(4-methyl-1H-imidazol-1-yl)-N-(1-methyl-3-phenylpropyl) benzamide] as the compound, how does the IC50 read?
**A.** The IC50 was 667 nM.

**Q.** With COc1cc(C(=O)NCc2c(C)cccc2NS(C)(=O)=O)ccc1-n1cnc(C)c1 [Example 102, 3-methoxy-4-(4-methyl-1H-imidazol-1-yl)-N-{2-methyl-6-[(methyl-sulfonyl)amino]benzyl} benzamide] as the compound, how does the IC50 read?
**A.** Its IC50 is 689 nM.
